Results from patent publication US10519148B2, “Acrylic acid derivative, preparation method and use in medicine thereof” (Zhejiang Hisun Pharmaceutical Co., Ltd., priority 2015, dated 2019).

Columns and labels:
ERα = target: T1, ERα (Homo sapiens, UniProt P03372); assay: ERα down-regulation immunofluorescence assay in MCF-7 cells; assay type: cell-based; details: immunofluorescence of ERα level, read-out: IC50 (nM) ERα down-degradation
T1 construct: host or cells: MCF-7
T1 sequence (P03372 1-595): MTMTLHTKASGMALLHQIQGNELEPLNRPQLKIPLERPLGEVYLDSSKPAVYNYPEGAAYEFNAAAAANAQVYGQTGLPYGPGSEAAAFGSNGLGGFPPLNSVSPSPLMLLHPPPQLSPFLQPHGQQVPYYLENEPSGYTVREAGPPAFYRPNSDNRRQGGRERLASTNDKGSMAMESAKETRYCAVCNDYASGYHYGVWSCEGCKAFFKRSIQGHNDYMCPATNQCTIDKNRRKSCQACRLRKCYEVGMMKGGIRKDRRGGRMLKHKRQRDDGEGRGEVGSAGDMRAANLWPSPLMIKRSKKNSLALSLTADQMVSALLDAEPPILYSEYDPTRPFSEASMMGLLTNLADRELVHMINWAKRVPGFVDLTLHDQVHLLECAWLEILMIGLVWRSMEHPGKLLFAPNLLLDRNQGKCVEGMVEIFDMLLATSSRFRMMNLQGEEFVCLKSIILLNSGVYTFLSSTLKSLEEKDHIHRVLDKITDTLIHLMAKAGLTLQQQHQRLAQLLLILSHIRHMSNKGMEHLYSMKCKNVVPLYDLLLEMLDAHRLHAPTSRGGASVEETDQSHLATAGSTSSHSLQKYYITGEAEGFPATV
Protocol: The down-regulation of the preferred compounds of the present invention on the protein level of ERα is evaluated by immunofluorescence assay using human breast cancer cell line MCF-7. MCF-7 cells used in the experiment were revived directly from frozen cells (about 5×10^6). The MCF-7 frozen cell line (Sigma D5921) purchased from Sigma was stored in DMEM medium containing 2 mM […]. 5% (v/v) Charcoal/Dextran-treated bovine serum […] were added to the revived MCF-7 cells and the cell concentration was determined using Coulter Counter.
The cells used for the test were diluted to 3.75×10^4 cells/mL with culture medium and 40 μL/well of the above cell suspension was transferred to 384-well black transparent bottom plates and incubated overnight at 37° C., 5% CO2. 10 mM compound stock solutions were diluted to a series of test concentrations (10 mM, 0.1 mM, 1 μM, 0.01 μM etc.) and dispensed into cell plates. 20 μL of 11.1% (v/v) aqueous formaldehyde solution (phosphate buffered saline) was added to each of the different concentrations of the test compounds and MCF-7 cell culture solution (40 μL), and the final concentration of formaldehyde in the solution was 3.7% (v/v). Cells were fixed at room temperature for 20 minutes, washed twice with 250 μL of PBS/Proclin, and then 40 μL of PBS/Proclin was added and refrigerated at 4° C. The immunostaining of the protein was performed using the automated AutoElisa kit. The PBS/Proclin solution was aspirated from each plate well and then 40 μL of PBS containing 0.5% Tween 20 (v/v) was added for cell permeation. After one hour, the plate was washed with 250 μL of PBS/0.05% Tween 20/Proclin for three times, and 20 μL of ERα rabbit monoclonal antibody (Thermofisher) in PBS/Tween™ 20/3% (w/v) BSA solution (1:1000) was added. The plates were incubated overnight at 4° C., washed three times with 250 μL of PBS/Tween™ 20/Proclin, and then 20 μL of goat anti-rabbit IgG AlexaFluor 594 or goat anti-rabbit IgG AlexaFluor 488 antibody (containing Hoechst stain (1:5000) in PBS/Tween™ 20/3% (w/v) BSA solution was added, and the system was incubated at room temperature for one hour. After the plates were washed three times with 250 μL of PBS/0.05% (v/v) Tween™ 20/Proclin, 20 μL of PBS was added and the paltes were kept in dark place at 4° C. The level of estrogen receptor ERα in MCF-7 cells was calculated through Cellomics Arrayscan detection of fluorescence emission intensity at two emission wave bands at 594 nm (24-hour time point) and 488 nm (5-hour time point). The average fluorescence emission intensity of each cell is positively correlated with the ERα receptor level of the cell. The primitive fluorescence data was used to obtain the fitting curve by software such as Origin or Genedata. Half maximal inhibitory concentration IC50 was used to characterize the down-regulation of estrogen receptor ERα by the test compounds, which is the concentration of the test compound when the fluorescence emission intensity is reduced to 50% of the average maximum fluorescence intensity.

[1] = target: T2, recombinant human estrogen receptor ERα ligand binding domain (Homo sapiens, UniProt P03372); assay: LanthaScreen TR-FRET competition binding assay with estrogen receptor ERα ligand binding domain; details: TR-FRET competition with Fluormone ES2, ERα-LBD (GST); read-out: IC50 (nM) ER Reporter
T2 construct: purchased Invitrogen PV4543
T2 sequence (P03372 311-547 limits assumed): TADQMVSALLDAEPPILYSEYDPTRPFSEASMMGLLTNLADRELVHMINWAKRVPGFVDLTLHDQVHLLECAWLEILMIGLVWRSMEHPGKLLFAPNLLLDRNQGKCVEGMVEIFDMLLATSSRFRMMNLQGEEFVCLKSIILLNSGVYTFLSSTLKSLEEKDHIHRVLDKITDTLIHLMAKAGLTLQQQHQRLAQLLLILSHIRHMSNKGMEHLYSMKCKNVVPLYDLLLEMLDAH
Description: The present invention utilizes the Lantha Screen™ Time-resolved Fluorescence Resonance Energy Transfer (TR-FRET) to assess the ability of the compounds to bind to the isolated ligand domain of estrogen receptor Era in competition assay. The fluorophore (Fluormone ES2, product code P2645) and the recombinant human estrogen receptor ERα ligand binding domain (product code PV4543) using in the TR-FRET were purchased from Invitrogen. The design principle of this assay is as follows: the estrogen receptor ERα-LBD (GST) and the fluorophore-containing ligand form a receptor/fluorophore complex, followed by the addition of terbium (Tb)-labeled anti-GST antibody (product code PV3551), the indirect labeling of the receptor is achieved by the linkage with the GST on the receptor, and the ability of competitive coordination between the test compound and the fluorescent ligand with the receptor is evaluated by detecting the attenuation of the TR-FRET effect between the chromophore (Tb-anti-GST antibody) on the fluorescent label ERα and the fluorescent ligand (Fluormone ES2). We used the following sample preparation and test methods for the test of the synthesized compounds. The instrument we used is Beckman Coulter BioPAPTR FRD microfluidic workstation.
(1) Acoustic dispense 120 nL of the test compound into a black low volume 384 well assay plates;
(2) Preparation of 1×ERα-LBD/Tb-anti-GST antibody complex in ES2 buffer and incubation therein for 20 minutes;
(3) The 1×ES2 was further added to the above ERα-LBD/Tb-anti-GST antibody complex solution before the test;
(4) 12 μL of the ERα-LBD/Tb-anti-GST antibody complex solution prepared in step 3 was added to the wells of the assay plate;
(5) The plates were shielded from light and incubated at room temperature for one hour; (6) At 337 nm excitation light, the emission light at 490 nm and 520 nm was detected by BMG Phera STAR.
The test compounds of a series of concentrations (10 mM, 0.1 mM, 1 μM and 10 nM) prepared on a microplate were transferred to the analytical plate using Labcyte Echo 550. 120 nL of DMSO solution for each test compound was added to each well of the assay plate and tested at 12 different concentrations (100, 29.17, 10.42, 2.083, 1, 0.292, 0.104, 0.02083, 0.01, 0.0029, 0.00104, 0.001 μM). The TR-FRET primitive fluorescence data was used to obtain the fitting curve software such as Origin or Genedata. Half maximal inhibitory concentration IC50 of each compound was used to characterize the competitive binding ability of the test compound with the estrogen receptor ERα. IC50 represents the concentration of the test compound that was calculated when the coordination of the tracer fluorophore (ES2) with the estrogen receptor was reduced by 50%, and the IC50 was determined as shown in Table 3.

Row | SMILES | DC50 (ERα) | IC50 [1]
1 | C[C@@H]1Cc2c([nH]c3ccccc23)[C@@H](c2c(F)cc(/C=C/C(=O)O)cc2F)N1CC1CC1 [Example 2, (E)-3-(4-((1R,3R)-2-(cyclopropylmethyl)-3-methyl-2,3,4,9-tetrahydro-1H-pyrido[3,4-b]indol-1-yl)-3,5-difluorophenyl)acrylic acid] | 0.1 to 10 nM | 0.1 to 10 nM
2 | C[C@@H]1Cc2c([nH]c3ccccc23)[C@@H](c2c(F)cc(/C=C/C(=O)O)cc2F)N1CC1CCCC1 [Example 3, (E)-3-(4-((1R,3R)-2-(cyclopentylmethyl)-3-methyl-2,3,4,9-tetrahydro-1H-pyrido[3,4-b]indol-1-yl)-3,5-difluorophenyl)acrylic acid] | 10 to 250 nM | 10 to 250 nM
3 | C[C@@H]1Cc2c([nH]c3ccccc23)[C@@H](c2c(F)cc(/C=C/C(=O)O)cc2F)N1CC1(F)CCCCC1 [Example 6, (E)-3-(3,5-difluoro-4-((1R,3R)-2-((1-fluorocyclohexyl)methyl)-3-methyl-2,3,4,9-tetrahydro-1H-pyrido[3,4-b]indol-1-yl)phenyl)acrylic acid] | 10 to 250 nM | 10 to 250 nM
4 | C[C@@H]1Cc2c([nH]c3ccccc23)[C@@H](c2c(F)cc(/C=C/C(=O)O)cc2F)N1CC1COC1 [Example 11, (E)-3-(3,5-difluoro-4-((1R,3R)-3-methyl-2-(oxetane-3-ylmethyl)-2,3,4,9-tetrahydro-1H-pyrido[3,4-b]indol-1-yl)phenyl)acrylic acid] | 10 to 250 nM | 10 to 250 nM
5 | C[C@H]1Cc2c([nH]c3cccc(F)c23)[C@H](c2c(F)cc(/C=C/C(=O)O)cc2F)N1CC1(F)CC1 [Example 13, (E)-3-(3,5-difluoro-4-((1S,3S)-5-fluoro-2-((1-fluorocyclopropyl)methyl)-3-methyl-2,3,4,9-tetrahydro-1H-pyrido[3,4-b]indol-1-yl)phenyl)acrylic acid] | 250 to 1000 nM | 250 to 1000 nM
